Data from ChEMBL document CHEMBL1201862, “PubChem BioAssay data set” (2004).
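Results reflect a 48-hour exposure of cells in 96-well plates to compound at five concentrations. GI50 = concentration required for 50% inhibition of growth.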 Active and inactive are the calls of the source. No stated cut-off is given here; in the data, active = GI50 up to about 1.1 µM and inactive = higher.

Legend:
Assay in all cases: NCI-60 cell line screen, 48 h
[1] = test system: TK-10
[2] = test system: HOP-62
[3] = test system: 786-0
[4] = test system: OVCAR-8
[5] = test system: SK-OV-3
[6] = test system: SNB-75
[7] = test system: M14
[8] = test system: NCI-H522
[9] = test system: ACHN
[10] = test system: MDA-N
[11] = test system: RPMI-8226
[12] = test system: UACC-257
[13] = test system: SNB-19
[14] = test system: UO-31
[15] = test system: HOP-92
[16] = test system: CAKI-1
[17] = test system: IGROV-1
[18] = test system: NCI/ADR-RES
[19] = test system: SF-539
[20] = test system: CCRF-CEM
[21] = test system: MCF7
[22] = test system: Malme-3M
[23] = test system: LOX IMVI
[24] = test system: Hs-578T
[25] = test system: T47D
[26] = test system: A549
[27] = test system: K562
[28] = test system: U-251
[29] = test system: PC-3
[30] = test system: MDA-MB-435
[31] = test system: HCT-15
[32] = test system: HL-60
[33] = test system: RXF 393
[34] = test system: SK-MEL-28
[35] = test system: HCT-116
[36] = test system: HT-29
[37] = test system: MOLT-4
[38] = test system: SF-268
[39] = test system: SK-MEL-2
[40] = test system: SR
[41] = test system: SK-MEL-5
[42] = test system: A498
[43] = test system: NCI-H23
[44] = test system: SW-620
[45] = test system: DU-145
[46] = test system: SF-295
[47] = test system: HCC 2998
[48] = test system: EKVX
[49] = test system: OVCAR-5
[50] = test system: OVCAR-3
[51] = test system: MDA-MB-231
[52] = test system: NCI-H460
[53] = test system: OVCAR-4
[54] = test system: COLO 205
[55] = test system: BT-549
[56] = test system: UACC-62
[57] = test system: SN12C
[58] = test system: KM12
[59] = test system: NCI-H226

Measured: GI50

O=C1c2cc3c(cc2CC12Cc1ccc4c(c1C2=O)CCC4)CCC3 (stereo not given)
> 100 µM: [31]
inactive: [1] > 100 µM | [2] 74 µM | [3] 65.6 µM | [4] > 100 µM | [5] 43.8 µM | [6] > 100 µM | [7] > 100 µM | [8] > 100 µM | [9] > 100 µM | [10] > 100 µM | [11] > 100 µM | [12] > 100 µM | [13] 94.6 µM | [14] > 100 µM | [15] > 100 µM | [16] > 100 µM | [17] > 100 µM | [18] > 100 µM | [19] > 100 µM | [20] > 100 µM | [21] > 100 µM | [22] 41.7 µM | [23] > 100 µM | [24] > 100 µM | [25] > 100 µM | [26] > 100 µM | [27] > 100 µM | [28] 33.6 µM | [29] > 100 µM | [30] > 100 µM | [32] > 100 µM | [33] > 100 µM | [34] > 100 µM | [35] > 100 µM | [36] > 100 µM | [37] > 100 µM | [38] > 100 µM | [39] > 100 µM | [40] > 100 µM | [41] > 100 µM | [42] > 100 µM | [43] > 100 µM | [44] > 100 µM | [45] > 100 µM | [46] > 100 µM | [47] > 100 µM | [48] > 100 µM | [49] > 100 µM | [50] 75.5 µM | [51] > 100 µM | [52] > 100 µM | [53] 50.6 µM

CCn1nc(C)c2c1C(=O)NCC(=O)N2
inactive: [1] > 100 µM | [54] > 100 µM | [4] > 100 µM | [5] > 100 µM | [55] > 100 µM | [6] > 100 µM | [7] > 100 µM | [8] > 100 µM | [9] > 100 µM | [10] > 100 µM | [12] > 100 µM | [13] > 100 µM | [14] > 100 µM | [15] > 100 µM | [16] > 100 µM | [17] > 100 µM | [19] > 100 µM | [56] > 100 µM | [24] > 100 µM | [26] > 100 µM | [28] > 100 µM | [29] > 100 µM | [30] > 100 µM | [33] > 100 µM | [34] > 100 µM | [57] > 100 µM | [35] > 100 µM | [36] > 100 µM | [38] > 100 µM | [41] > 100 µM | [42] > 100 µM | [43] > 100 µM | [58] > 100 µM | [44] > 100 µM | [45] > 100 µM | [46] > 100 µM | [48] > 100 µM | [49] > 100 µM | [50] > 100 µM | [52] > 100 µM | [53] > 100 µM
> 100 µM: [31]

CC(C)(C)COC1C2(OCCO2)C2CCC1(C)C2(C)C (stereo not given)
inactive: [1] > 100 µM | [2] 22.1 µM | [3] 19.4 µM | [54] 28.6 µM | [4] 23.1 µM | [59] 27.4 µM | [5] 66.2 µM | [6] 24.1 µM | [7] 44 µM | [9] 20.4 µM | [10] 43.2 µM | [11] 19.9 µM | [12] 24.9 µM | [13] 20.6 µM | [14] 26.2 µM | [15] 28.1 µM | [16] 40.1 µM | [17] 82.8 µM | [18] 42 µM | [19] 37.8 µM | [20] 18.8 µM | [21] 19.1 µM | [56] 54.7 µM | [22] 29 µM | [23] 19.2 µM | [24] 18.8 µM | [25] 23.8 µM | [26] 23.6 µM | [27] 18.5 µM | [28] 18 µM | [29] 23.1 µM | [30] 36 µM | [32] 24.8 µM | [33] 19.6 µM | [34] 87.1 µM | [36] 32.7 µM | [37] 21.4 µM | [38] 50.2 µM | [39] 23.4 µM | [40] 21.6 µM | [41] 30.3 µM | [42] > 100 µM | [43] 52.5 µM | [58] 20 µM | [44] 19.7 µM | [45] 35.7 µM | [46] 18.7 µM | [47] 37.5 µM | [48] 33.7 µM | [49] 28.9 µM | [50] 17.6 µM | [51] 31.8 µM | [52] 33.7 µM | [53] 45 µM
22.4 µM: [31]
